US11395847B2, “Acylated GLP-1/GLP-2 dual agonists” (Zealand Pharma A/S, priority 2016, dated 2022)
Where two headings read alike, the source gives them in different places. Where a SMILES comes first, the peptide text is derived from it.

Tests used:
human GLP-2 receptor = biological target: T1, human GLP-2 receptor (Homo sapiens, UniProt O95838, D470N); experiment: GLP-2 receptor potency assay (cAMP ALPHASCREEN, HEK293 cells stably expressing GLP-2 R); format: cell-based; conditions: cAMP response, HEK293 cells expressing human GLP-2 R; read-out: EC50 GLP-2
T1 construct: expressed in transfected cells
T1 sequence (O95838 1-553 D470N): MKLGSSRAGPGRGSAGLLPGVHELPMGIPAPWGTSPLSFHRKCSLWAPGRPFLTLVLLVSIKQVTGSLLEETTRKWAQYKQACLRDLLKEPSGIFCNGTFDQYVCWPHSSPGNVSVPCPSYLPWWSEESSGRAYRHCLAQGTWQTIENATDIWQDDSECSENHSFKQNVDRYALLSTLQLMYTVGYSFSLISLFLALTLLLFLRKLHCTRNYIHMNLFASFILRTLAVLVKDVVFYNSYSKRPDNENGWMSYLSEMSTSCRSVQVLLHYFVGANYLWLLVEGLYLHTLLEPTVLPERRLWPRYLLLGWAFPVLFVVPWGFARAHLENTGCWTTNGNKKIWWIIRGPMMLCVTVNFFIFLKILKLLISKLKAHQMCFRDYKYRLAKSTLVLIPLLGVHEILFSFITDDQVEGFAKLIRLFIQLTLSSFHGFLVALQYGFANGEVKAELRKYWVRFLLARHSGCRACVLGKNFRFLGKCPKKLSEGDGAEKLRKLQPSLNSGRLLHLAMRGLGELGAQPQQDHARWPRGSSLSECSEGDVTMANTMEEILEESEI
In short: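 HEK293 clones stably transfected with the human GLP-2 receptor, selected with G418, were used. Intracellular cAMP was quantified by AlphaScreen. Responses were normalised to positive and vehicle controls, and EC50 and maximal response were taken from concentration-response curves.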

human GLP-1 receptor = biological target: T2, human GLP-1 receptor (Homo sapiens, UniProt P43220); experiment: GLP-1 receptor potency assay (cAMP ALPHASCREEN, HEK293 cells stably expressing GLP-1 R); format: cell-based; conditions: cAMP response, HEK293 cells expressing human GLP-1 R
T2 construct: expressed in transfected cells
In short: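 Clonal HEK293 line stably transfected with human GLP-1R (G418-selected) was treated with test compounds and the cAMP response quantified by ALPHASCREEN. Signals were normalized to positive control and vehicle, with EC50 and maximal response taken from concentration-response curves.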

[1] = Chemical stability (RP-HPLC normalized purity after incubation at 40° C.); format: physicochemical; conditions: 14-day incubation, 0.2 mg/ml, normalized purity (area-%); for pH 7 normalized stability: pH 7, 40° C.
In short: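 Peptide at 0.2 mg/ml final in water adjusted to pH 6, 7, 7.5 or 9, incubated at 40° C for 14 days. Purity measured as main-peak area-% by C18 RP-HPLC (acetonitrile/TFA/water gradient, UV 220 nm) and normalized to T=0 set at 100 for each pH.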

[2] = Solubility assessment (turbidity absorbance at 325 nm); format: physicochemical
In short: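 Peptide stock at 2 mg/ml in water at pH 2.5 diluted 1:1 into 100 mM acetate (pH 4.0, 5.0), histidine (pH 6.0, 7.0) or phosphate (pH 6.0, 7.0, 7.5) buffer. Absorbance at 280 and 325 nm read at ambient temperature (typically 25 °C), single samples (n=1).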

[3] = test system: Normal chow-fed C57BL/6J male mice; experiment: Effect on fasting glucose and intestinal weight in normal mice; format: in vivo; conditions: for Small intestinal wet weight: 100 nmol/kg s.c. once daily for 4 days, sacrificed 24 hours after final dosing; for Fasting blood glucose: 100 nmol/kg s.c., day 0 after a single injection, fasted mice
Method: Normal chow-fed C57BL/6J male mice were used. The mice were kept in standard housing conditions, light-, temperature-, and humidity-controlled room (12:12 h light-dark cycle, with lights on at 06.00-18.00 h; 20-22° C.; 50-80% relative humidity). Each dosing group consisted of 6 animals. Mice were dosed once daily with 100 nmol/kg with the test compounds or vehicle for 4 days via subcutaneous administration.
On day 0 mice were fasted and blood glucose levels measured after a single s.c. injection with peptides. Animals were sacrificed 24 hours after final dosing on day 3, and small intestinal wet weights were measured.

T2 sequence (P43220 24-463): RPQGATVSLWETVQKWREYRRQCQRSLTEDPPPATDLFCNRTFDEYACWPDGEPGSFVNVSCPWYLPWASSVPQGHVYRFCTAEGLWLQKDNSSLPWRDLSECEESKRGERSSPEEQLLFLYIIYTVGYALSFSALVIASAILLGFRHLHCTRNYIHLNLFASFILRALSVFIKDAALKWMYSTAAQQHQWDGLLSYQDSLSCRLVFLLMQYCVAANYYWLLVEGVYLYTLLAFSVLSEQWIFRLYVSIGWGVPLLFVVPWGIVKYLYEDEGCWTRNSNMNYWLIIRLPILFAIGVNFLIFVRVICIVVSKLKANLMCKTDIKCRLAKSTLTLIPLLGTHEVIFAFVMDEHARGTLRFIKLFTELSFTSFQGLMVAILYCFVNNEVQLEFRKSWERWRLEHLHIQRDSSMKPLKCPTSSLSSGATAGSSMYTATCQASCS

Compound	EC50 (human GLP-2 receptor) [pM]	EC50 (human GLP-1 receptor) [pM]	pH 7 normalized stability [1]	Small intestinal wet weight [3] [g]	Fasting blood glucose [3] [mM]	other results
CC[C@H](C)[C@H](NC(=O)[C@H](CC(C)C)NC(=O)[C@H](Cc1c[nH]c2ccccc12)NC(=O)[C@H](C)NC(=O)[C@@H](NC(=O)[C@H](Cc1ccccc1)NC(=O)[C@H](CC(=O)O)NC(=O)[C@H](CCCNC(=N)N)NC(=O)[C@H](C)NC(=O)[C@H](C)NC(=O)[C@H](CCC(N)=O)NC(=O)[C@H](CCCCNC(=O)CC[C@H](NC(=O)CCCCCCCCCCCCCCCCC(=O)O)C(=O)O)NC(=O)[C@H](CC(=O)O)NC(=O)[C@H](CC(C)C)NC(=O)[C@@H](NC(=O)[C@@H](NC(=O)[C@H](C)NC(=O)[C@H](CC(C)C)NC(=O)[C@H](CCC(=O)O)NC(=O)[C@H](CO)NC(=O)[C@@H](NC(=O)[C@H](Cc1ccccc1)NC(=O)[C@@H](NC(=O)CNC(=O)[C@H](CCC(=O)O)NC(=O)C(C)(C)NC(=O)[C@@H](N)Cc1c[nH]cn1)[C@@H](C)O)[C@@H](C)O)[C@@H](C)O)[C@@H](C)CC)[C@@H](C)CC)C(=O)N[C@@H](C)C(=O)N[C@@H](Cc1c[nH]cn1)C(=O)N[C@@H](CCCCN)C(=O)N[C@H](C(=O)N[C@H](C(=O)N[C@@H](CC(=O)O)C(=O)O)[C@@H](C)O)[C@@H](C)CC [Compound 23] (HELM PEPTIDE1{H.[Aib].E.G.T.F.T.S.E.L.A.T.I.L.D.K.Q.A.A.R.D.F.I.A.W.L.I.A.H.K.I.T.D}|PEPTIDE2{[O=C(O)CCCCCCCCCCCCCCCCC(=O)[*:2]].[gGlu]}$PEPTIDE1,PEPTIDE2,16:R3-2:R2$$$V2.0)	240	130	B (>80% stability)			pH 6 normalized stability ([1]; pH 6, 40° C.): A (>90% normalised stability); solubility ([2]; 100 mM acetate buffer pH 4.0, ambient temperature, read-out: Solubility Acetate buffer pH 4): < 1000 µg/mL; solubility ([2]; 100 mM acetate buffer pH 5.0, ambient temperature, read-out: Solubility Acetate buffer pH 5): < 1000 µg/mL; solubility ([2]; 100 mM histidine buffer pH 6.0, ambient temperature, read-out: Solubility Histidine buffer pH 6): ≥ 1000 µg/mL; solubility ([2]; 100 mM histidine buffer pH 7.0, ambient temperature, read-out: Solubility Histidine buffer pH 7): ≥ 1000 µg/mL; solubility ([2]; 100 mM phosphate buffer pH 6.0, ambient temperature, read-out: Solubility Phosphate buffer pH 6): ≥ 1000 µg/mL; solubility ([2]; 100 mM phosphate buffer pH 7.0, ambient temperature, read-out: Solubility Phosphate buffer pH 7): ≥ 1000 µg/mL; solubility ([2]; 100 mM phosphate buffer pH 7.5, ambient temperature, read-out: Solubility Phosphate buffer pH 7.5): ≥ 1000 µg/mL
CC[C@H](C)[C@H](NC(=O)[C@H](Cc1ccccc1)NC(=O)[C@H](CC(=O)O)NC(=O)[C@H](CCCNC(=N)N)NC(=O)[C@H](C)NC(=O)[C@H](C)NC(=O)[C@H](CCCCNC(=O)CC[C@H](NC(=O)CCCCCCCCCCCCCCCCC(=O)O)C(=O)O)NC(=O)CNC(=O)[C@H](CC(=O)O)NC(=O)[C@H](CC(C)C)NC(=O)[C@@H](NC(=O)[C@@H](NC(=O)[C@H](C)NC(=O)[C@H](CC(C)C)NC(=O)[C@H](CCC(=O)O)NC(=O)[C@H](CO)NC(=O)[C@@H](NC(=O)[C@H](Cc1ccccc1)NC(=O)[C@H](CO)NC(=O)CNC(=O)[C@H](CCC(=O)O)NC(=O)C(C)(C)NC(=O)[C@@H](N)Cc1c[nH]cn1)[C@@H](C)O)[C@@H](C)O)[C@@H](C)CC)C(=O)N[C@@H](C)C(=O)N[C@@H](Cc1c[nH]c2ccccc12)C(=O)N[C@@H](CC(C)C)C(=O)N[C@H](C(=O)N[C@@H](CCC(=O)O)C(=O)N[C@@H](Cc1c[nH]cn1)C(=O)N[C@@H](CCCCN)C(=O)N[C@H](C(=O)N[C@H](C(=O)N[C@@H](CC(=O)O)C(=O)O)[C@@H](C)O)[C@@H](C)CC)[C@@H](C)CC [Compound 8] (HELM PEPTIDE1{H.[Aib].E.G.S.F.T.S.E.L.A.T.I.L.D.G.K.A.A.R.D.F.I.A.W.L.I.E.H.K.I.T.D}|PEPTIDE2{[O=C(O)CCCCCCCCCCCCCCCCC(=O)[*:2]].[gGlu]}$PEPTIDE1,PEPTIDE2,17:R3-2:R2$$$V2.0)				1.27	5.28	
CC[C@H](C)[C@H](NC(=O)[C@H](Cc1ccccc1)NC(=O)[C@H](CC(=O)O)NC(=O)[C@H](CCCNC(=N)N)NC(=O)[C@H](C)NC(=O)[C@H](C)NC(=O)[C@H](CCC(N)=O)NC(=O)[C@H](CCCCNC(=O)COCCOCCNC(=O)[C@H](CCCCN)NC(=O)[C@H](CCC(=O)O)NC(=O)[C@H](CCCCN)NC(=O)CC[C@H](NC(=O)CCCCCCCCCCCCCCCCCCC(=O)O)C(=O)O)NC(=O)[C@H](CC(=O)O)NC(=O)[C@H](CC(C)C)NC(=O)[C@@H](NC(=O)[C@@H](NC(=O)[C@H](C)NC(=O)[C@H](CC(C)C)NC(=O)[C@H](CCC(=O)O)NC(=O)[C@H](CO)NC(=O)[C@H](CO)NC(=O)[C@H](Cc1ccccc1)NC(=O)[C@@H](NC(=O)CNC(=O)[C@H](CCC(=O)O)NC(=O)C(C)(C)NC(=O)[C@@H](N)Cc1c[nH]cn1)[C@@H](C)O)[C@@H](C)O)[C@@H](C)CC)C(=O)N[C@@H](C)C(=O)N[C@@H](Cc1c[nH]c2ccccc12)C(=O)N[C@@H](CC(C)C)C(=O)N[C@H](C(=O)N[C@@H](CCC(N)=O)C(=O)N[C@@H](Cc1c[nH]cn1)C(=O)N[C@@H](CCCCN)C(=O)N[C@H](C(=O)N[C@H](C(=O)N[C@@H](CC(=O)O)C(=O)O)[C@@H](C)O)[C@@H](C)CC)[C@@H](C)CC [Compound 48] (HELM PEPTIDE1{H.[Aib].E.G.T.F.S.S.E.L.A.T.I.L.D.K.Q.A.A.R.D.F.I.A.W.L.I.Q.H.K.I.T.D}|PEPTIDE2{[O=C(O)CCCCCCCCCCCCCCCCCCC(=O)[*:2]].[gGlu].K.E.K.[O=C(COCCOCCN[*:1])[*:2]]}$PEPTIDE1,PEPTIDE2,16:R3-6:R2$$$V2.0)				1.41	5.08	
CC[C@H](C)[C@H](NC(=O)[C@H](Cc1ccccc1)NC(=O)[C@H](CC(=O)O)NC(=O)[C@H](CCCNC(=N)N)NC(=O)[C@H](C)NC(=O)[C@H](C)NC(=O)[C@H](CCC(N)=O)NC(=O)[C@H](CCCCNC(=O)CC[C@H](NC(=O)CCCCCCCCCCCCCCCCC(=O)O)C(=O)O)NC(=O)[C@H](CC(=O)O)NC(=O)[C@H](CC(C)C)NC(=O)[C@@H](NC(=O)[C@@H](NC(=O)[C@H](C)NC(=O)[C@H](CC(C)C)NC(=O)[C@H](CCC(=O)O)NC(=O)[C@H](CO)NC(=O)[C@@H](NC(=O)[C@H](Cc1ccccc1)NC(=O)[C@H](CO)NC(=O)CNC(=O)[C@H](CCC(=O)O)NC(=O)C(C)(C)NC(=O)[C@@H](N)Cc1c[nH]cn1)[C@@H](C)O)[C@@H](C)O)[C@@H](C)CC)C(=O)N[C@@H](C)C(=O)N[C@@H](Cc1c[nH]c2ccccc12)C(=O)N[C@@H](CC(C)C)C(=O)N[C@H](C(=O)N[C@@H](CCCNC(=N)N)C(=O)N[C@@H](Cc1c[nH]cn1)C(=O)N[C@@H](CCCCN)C(=O)N[C@H](C(=O)N[C@H](C(=O)N[C@@H](CC(=O)O)C(=O)O)[C@@H](C)O)[C@@H](C)CC)[C@@H](C)CC [Compound 30] (HELM PEPTIDE1{H.[Aib].E.G.S.F.T.S.E.L.A.T.I.L.D.K.Q.A.A.R.D.F.I.A.W.L.I.R.H.K.I.T.D}|PEPTIDE2{[O=C(O)CCCCCCCCCCCCCCCCC(=O)[*:2]].[gGlu]}$PEPTIDE1,PEPTIDE2,16:R3-2:R2$$$V2.0)	380	310	A (>90% normalised stability)			
